# Tested on: HEK293 cells
# Test: Preliminary screening as mRNA vectors, EGFP mRNA transfection of HEK293 cells
# Format: cell-based
# Conditions: EGFP mRNA 50 ng per well, 96-well plates; percentage of GFP fluorescent cells relative to total number of cells (Hoechst)
# Summary of the method: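 Screening format: EGFP mRNA transfection (50 ng/well) into HEK293 in 10% FBS-supplemented DMEM. Percent green fluorescent cells, normalised to Hoechst nuclear count, gave the value; Lipofectamine2000 was the reference transfectant.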
row,SMILES,Absolute mRNA transfection efficiency in HEK293 cells [%]
1,CCCCCCCCCCCNc1nc(NCCCN2CCN(C)CC2)nc(SCCCCCCCCCCC)n1 [Compound D9S11N11],24.5
2,CCCCCCCCCCCCNc1nc(NCCN2CCOCC2)nc(SCCCCCCCCCC)n1 [Compound D2S10N12],1.5
3,CCCCCCCCCCCCCCCCCCSc1nc(NCCCCCCCCCCCCCCCC)nc(NCCCN2CCN(C)CC2)n1 [Compound D9S18N16],0.1
4,CCCCCCCCCCCCCCCCCCNc1nc(NCCN2CCOCC2)nc(SCCCCCCCCCCCCCCC)n1 [Compound D2S15N18],0.3
5,CCCCCCCCCCCCCCCCSc1nc(NCCCCCCCC)nc(NCCCN2CCOCC2)n1 [Compound D8S16N8],17.8
6,CCCCCCSc1nc(NCCCN2CCN(C)CC2)nc(SCCCCCC)n1 [Compound D9S6S6],8.0
7,CCCCCCCCCCCCCCCNc1nc(NCCN2CCCC2)nc(SCCCCCC)n1 [Compound D3S6N15],14.4
8,CCCCCCCCCCSc1nc(NCCCCCC)nc(NCCCN2CCOCC2)n1 [Compound D8S10N6],0.2
9,CCCCCCCCNc1nc(NCCN2CCCCC2)nc(SCCCCCC)n1 [Compound D4S6N8],0.3
10,CCCCCCCCCCCCCNc1nc(NCCCN2CCOCC2)nc(SCCCCCCCCC)n1 [Compound D8S9N13],12.6
11,CCCCCCCCCCCCCCCCCCNc1nc(NCC2CCN(C)CC2)nc(SCCCCCCCCCCCC)n1 [Compound D10S12N18],4.1
12,CCCCCCCCCSc1nc(NCCCN(C)C)nc(SCCCCCCC)n1 [Compound D6S7S9],14.3
13,CCCCCCCCCCCCSc1nc(NCCCCCC)nc(NCCN2CCOCC2)n1 [Compound D2S12N6],0.0
14,CCCCCCNc1nc(NCCN2CCN(C)CC2)nc(SCCCCCC)n1 [Compound D5S6N6],2.1
15,CCCCCCCCCCCNc1nc(NCCN(C)C)nc(SCCCCCCCCCC)n1 [Compound D1S10N11],6.2
16,CCCCCCCCCCCCCCCCSc1nc(NCCCCCCCCCCCCC)nc(NCCCN(C)C)n1 [Compound D6S16N13],0.5
17,CCCCCCCCCCCCCCSc1nc(NCCCCCCCCCCCC)nc(NCCCN(C)C)n1 [Compound D6S14N12],17.0
18,CCCCCCCCCCCCCNc1nc(NCCN2CCCCC2)nc(SCCCCCCCCC)n1 [Compound D4S9N13],10.8
19,CCCCCCCCCCCCCCCCSc1nc(NCCCCCCCCC)nc(NCCN2CCCCC2)n1 [Compound D4S16N9],1.0
20,CCCCCCCCCCCSc1nc(NCCCCCC)nc(NCCN(CC)CC)n1 [Compound D7S11N6],4.3
21,CCCCCCCCNc1nc(NCCN(CC)CC)nc(SCCCCCC)n1 [Compound D7S6N8],3.5
22,CCCCCCCCCNc1nc(NCCCN(C)C)nc(SCCCCCCCC)n1 [Compound D6S8N9],6.7
23,CCCCCCCCCCCCCCCCSc1nc(NCCCCCCCCCCCC)nc(NCC2CCN(C)CC2)n1 [Compound D10S16N12],9.2

row,SMILES,Absolute mRNA transfection efficiency in HEK293 cells [%]
1,CCCCCCCCCCCCCCCCCCSc1nc(NCCCCCC)nc(NCCCN2CCN(C)CC2)n1 [Compound D9S18N6],55.4
2,CCCCCCCCCCCCN(CCCCCCCCCCCC)c1nc(NCC2CCN(C)CC2)nc(SCCCCCCCCCC)n1 [D10S10^2N12],0.2
3,CCCCCCCCCCCCCCCSc1nc(NCCN2CCOCC2)nc(SCCCCCCC)n1 [Compound D2S7S15],17.5
4,CCCCCCCCCCCCCCSc1nc(NCCCCCCCCC)nc(NCCCN2CCOCC2)n1 [Compound D8S14N9],2.3
5,CCCCCCCCCCCCCCSc1nc(NCCCN2CCN(C)CC2)nc(N(CCCCCCCCCCCC)CCCCCCCCCCCC)n1 [D9S14^2N12],0.1
6,CCCCCCCCNc1nc(NCCN(C)C)nc(SCCCCCCCC)n1 [Compound D1S8N8],5.8
7,CCCCCCCCCCCCN(CCCCCCCCCCCC)c1nc(NCCN2CCCCC2)nc(SCCCCCCC)n1 [D4S7^2N12],1.0
8,CCCCCCCCCCCCCCCCCCNc1nc(NCCN2CCOCC2)nc(SCCCCCCCCCCC)n1 [Compound D2S11N18],0.0
9,CCCCCCCCCCCCNc1nc(NCCN2CCOCC2)nc(SCCCCCCCCCCC)n1 [Compound D2S11N12],3.1
10,CCCCCCCCCCCCCCCCCCNc1nc(NCCCN2CCOCC2)nc(SCCCCCCCCC)n1 [Compound D8S9N18],1.9
11,CCCCCCCCNc1nc(NCCCN2CCOCC2)nc(SCCCCCCCC)n1 [Compound D8S8N8],1.3
12,CCCCCCCCSc1nc(NCCCCCCC)nc(NCCN2CCCC2)n1 [Compound D3S8N7],0.7
13,CCCCCCCCCCCCN(CCCCCCCCCCCC)c1nc(NCCN2CCCC2)nc(SCCCCCCCC)n1 [D3S8^2N12],0.9
14,CCCCCCCCCCCCCCCNc1nc(NCCCN(C)C)nc(SCCCCCCCCCCC)n1 [Compound D6S11N15],13.1
15,CCCCCCCCCCCSc1nc(NCCN2CCCC2)nc(SCCCCCCCC)n1 [Compound D3S8S11],4.9
16,CCCCCCCCCCCSc1nc(NCCN2CCOCC2)nc(SCCCCCC)n1 [Compound D2S6S11],7.4
17,CCCCCCCCCCCCCCCCCCNc1nc(NCCCN2CCN(C)CC2)nc(SCCCCCCCCCCCCCCCCCC)n1 [Compound D9S18N18],0.1
18,CCCCCCCCCCCCCCCCNc1nc(NCCN2CCN(C)CC2)nc(SCCCCCCCCCCCC)n1 [Compound D5S12N16],3.7
19,CCCCCCCCCSc1nc(NCCCN2CCOCC2)nc(SCCCCCCCC)n1 [Compound D8S8S9],47.2
20,CCCCCCCCCCCCCCCCCCSc1nc(NCCCCCCCCCCCCCCC)nc(NCCCN2CCN(C)CC2)n1 [Compound D9S18N15],0.0
21,CCCCCCCCCCCCCCCCSc1nc(NCCCCCCCCCCCC)nc(NCCN2CCCCC2)n1 [Compound D4S16N12],0.1
22,CCCCCCCCCCCCCCSc1nc(NCCN2CCCC2)nc(SCCCCCC)n1 [Compound D3S6S14],0.3
23,CCCCCCCCCCCNc1nc(NCCN2CCCC2)nc(SCCCCCCCCCC)n1 [Compound D3S10N11],17.1

row,SMILES,Absolute mRNA transfection efficiency in HEK293 cells [%]
1,CCCCCCCCCSc1nc(NCCCCCC)nc(NCCCN2CCOCC2)n1 [Compound D8S9N6],0.6
2,CCCCCCCSc1nc(NCCN2CCOCC2)nc(SCCCCCC)n1 [Compound D2S6S7],0.6
3,CCCCCCCCCCSc1nc(NCCCCCCC)nc(NCCCN(C)C)n1 [Compound D6S10N7],4.4
4,CCCCCCCCCCCCCCCCCCNc1nc(NCCCN2CCOCC2)nc(SCCCCCCCCCCCCCCCCCC)n1 [Compound D8S18N18],0.0
5,CCCCCCCCCCCCCCCCCCSc1nc(NCCCCCCCC)nc(NCCCN2CCOCC2)n1 [Compound D8S18N8],0.5
6,CCCCCCCCCCCCCCCCSc1nc(NCCCCCCCCCCC)nc(NCCCN(C)C)n1 [Compound D6S16N11],63.0
7,CCCCCCCCCNc1nc(NCCCN(C)C)nc(SCCCCCCCCC)n1 [Compound D6S9N9],19.8
8,CCCCCCCCCCCNc1nc(NCCCN2CCOCC2)nc(SCCCCCC)n1 [Compound D8S6N11],1.1
9,CCCCCCCNc1nc(NCCN2CCCC2)nc(SCCCCCCC)n1 [Compound D3S7N7],6.6
10,CCCCCCCCCCCCSc1nc(NCCCCCCCCC)nc(NCCN(C)C)n1 [Compound D1S12N9],34.2
11,CCCCCCCCCCCCNc1nc(NCCCN(C)C)nc(SCCCCCCCC)n1 [Compound D6S8N12],46.0
12,CCCCCCCCCCCCCCCCSc1nc(NCCCCCCCCCCC)nc(NCCN2CCN(C)CC2)n1 [Compound D5S16N11],45.0
13,CCCCCCCCCCCCCNc1nc(NCCCN(C)C)nc(SCCCCCCCCCCCC)n1 [Compound D6S12N13],5.5
14,CCCCCCCCCCCCCCSc1nc(NCCCCCC)nc(NCCN2CCOCC2)n1 [Compound D2S14N6],8.8
15,CCCCCCCCCCCCNc1nc(NCCCN2CCOCC2)nc(SCCCCCCCC)n1 [Compound D8S8N12],3.8
16,CCCCCCCCCCCCN(CCCCCCCCCCCC)c1nc(NCCCN2CCN(C)CC2)nc(SCCCCCCCC)n1 [D9S8^2N12],0.6
17,CCCCCCCCCCCCN(CCCCCCCCCCCC)c1nc(NCCN2CCOCC2)nc(SCCCCCCCCC)n1 [D2S9^2N12],0.1
18,CCCCCCCCCCCCCCCCNc1nc(NCCN2CCCC2)nc(SCCCCCCCC)n1 [Compound D3S8N16],14.3
19,CCCCCCCCCCCCCCCCCCNc1nc(NCCCN2CCOCC2)nc(SCCCCCCCCCCCCCCC)n1 [Compound D8S15N18],0.4
20,CCCCCCCCCCCNc1nc(NCCCN2CCN(C)CC2)nc(SCCCCCCCCCC)n1 [Compound D9S10N11],11.3
21,CCCCCCCCCCCCNc1nc(NCCN(CC)CC)nc(SCCCCCCCCCCCC)n1 [Compound D7S12N12],3.7
